# Bridge positions count the residues as written; N and C are the ends. Square brackets hold non-standard residues; d marks the D form. Peptide text beside a SMILES is read from it. * marks the point of attachment. hPhe(3-Cl-4-CF3) = N[C@@H](CCc1ccc(C(F)(F)F)c(Cl)c1)C(=O)O; hPhe(3-F,4-CF3) = N[C@@H](CCc1ccc(C(F)(F)F)c(F)c1)C(=O)O; NMePhe(4-CF3) = CN[C@@H](Cc1ccc(C(F)(F)F)cc1)C(=O)O; NMePhe(3-Me) = CN[C@@H](Cc1cccc(C)c1)C(=O)O; NMePhe(4-Me) = CN[C@@H](Cc1ccc(C)cc1)C(=O)O; NMeAla(cPent) = CN[C@@H](CC1CCCC1)C(=O)O; NMePhe(2-F) = CN[C@@H](Cc1ccccc1F)C(=O)O; NMeGly(cPent) = CN[C@H](C(=O)O)C1CCCC1; Pro(4,4-F2) = O=C(O)[C@@H]1CC(F)(F)CN1; NMeCha = CN[C@@H](CC1CCCCC1)C(=O)O; Hyp = O=C(O)[C@@H]1C[C@@H](O)CN1; NMeI = CC[C@H](C)[C@H](NC)C(=O)O; NMeD = CN[C@@H](CC(=O)O)C(=O)O; NMeL = CN[C@@H](CC(C)C)C(=O)O; NMeV = CN[C@H](C(=O)O)C(C)C; d(β3hA) = C[C@@H](N)CC(=O)O; NMeS = CN[C@@H](CO)C(=O)O; NMeA = CN[C@@H](C)C(=O)O; Piperidide = C1CCN(*)CC1; Pyrrolidide = C1CCN(*)C1; Ac5c = NC1(C(=O)O)CCCC1; Aze = O=C(O)[C@@H]1CCN1; Sar = CNCC(=O)O; Propyl = CCC*
# Legend:
# [1] = test system: Human pancreatic cancer cell line AsPC-1 (G12D mutation Kras); test: AsPC-1 cell growth inhibition (AsPC-1 CGI); type: cell-based; details: read-out: AsPC-1 cell growth inhibition, 50% growth inhibitory concentration (IC50 value); 96 hours, CellTiter-Glo, values classified in ranges
# Method: Test compounds were serially dilated with dimethyl sulfoxide, and 200 nL was then dispensed to a U-bottom 96-well plate using Labcyte Echo. […] The cell suspension was dispensed to a. plate containing a test compound at 100 μL per well and incubated at 37° C. in a 5% carbon dioxide gas incubator. 96 hours later, 80 μL of CellTiter-Glo (Promega) was added to each well and fluorescence was measured.
# [2] = target: protein-protein interaction between Kras and SOS1 (biotin-tagged human Kras loaded with GDP, His-tagged human SOS1) (Homo sapiens (Human), UniProt P01116, G12D); test: Protein-protein interaction inhibition between Kras and SOS1 (KrasG12D-SOS PPI) using AlphaScreen; type: biochemical; details: AlphaScreen; biotin-tagged human Kras loaded with GDP, His-tagged human SOS1; read-out: KRAS G12D-SOS PPI IC50;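 further: kras produced in E. coli, Ni-coupled donor beads and streptavidin acceptor beads, excitation 680 nm with emission detected at 520–620 nm via singlet oxygen transfer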
SMILES,IC50 [1],IC50 [2]
CC[C@H](C)[C@@H]1NC(=O)[C@H](CC2CCCC2)N(C)C(=O)C[C@@H](C(=O)N(C)C)N(C)C(=O)[C@H]([C@@H](C)CC)N(C)C(=O)C2(CCCC2)NC(=O)[C@@H]2CCCN2C(=O)[C@H](CCc2ccc(C(F)(F)F)c(Cl)c2)NC(=O)CN(C)C(=O)[C@H](Cc2ccc(C)cc2)N(C)C(=O)[C@@H]2CCN2C(=O)[C@H](C)N(C)C1=O [Compound 400] ([NMeAla(cPent)]I[NMeA][Aze][NMePhe(4-Me)][Sar][hPhe(3-Cl-4-CF3)]P[Ac5c][NMeI][NMeD]-NMe2; lactam N-11),≤ 20 nM,0.85 nM
"CC[C@H](C)[C@@H]1NC(=O)[C@H](CC(C)C)N(C)C(=O)C[C@@H](C(=O)N2CCCC2)N(C)C(=O)[C@H]([C@@H](C)CC)N(C)C(=O)C2(CCCC2)NC(=O)[C@@H]2CC(F)(F)CN2C(=O)[C@H](CCc2ccc(C(F)(F)F)c(Cl)c2)NC(=O)CN(C)C(=O)[C@H](Cc2ccc(C(F)(F)F)cc2)N(C)C(=O)[C@@H]2CCN2C(=O)[C@H](C)N(C)C1=O [Compound 1242] ([NMeL]I[NMeA][Aze][NMePhe(4-CF3)][Sar][hPhe(3-Cl-4-CF3)][Pro(4,4-F2)][Ac5c][NMeI][NMeD]-Pyrrolidide; lactam N-11)",≤ 20 nM,0.52 nM
CC[C@H](C)[C@@H]1NC(=O)[C@H](C)N(C)C(=O)C[C@@H](C)NC(=O)[C@H](C2CCCC2)N(C)C(=O)C2(CCCC2)NC(=O)[C@@H]2CCCN2C(=O)[C@H](CCc2ccc(C(F)(F)F)c(Cl)c2)NC(=O)CN(C)C(=O)[C@H](Cc2cccc(C)c2)N(C)C(=O)[C@@H]2CCCN2C(=O)CN(C)C1=O [Compound 1083] (cyclo([Ac5c][NMeGly(cPent)][d(β3hA)][NMeA]I[Sar]P[NMePhe(3-Me)][Sar][hPhe(3-Cl-4-CF3)]P)),> 500 nM,19 nM
"CCO[C@@H]1C[C@H]2C(=O)NC3(CCCC3)C(=O)N(C)[C@@H](C3CCCC3)C(=O)N(C)[C@H](C(=O)N(C)C)CC(=O)N(C)[C@@H](CC(C)C)C(=O)N[C@@H]([C@@H](C)CC)C(=O)N(C)[C@@H](C)C(=O)N3CC[C@H]3C(=O)N(C)[C@@H](CC3CCCCC3)C(=O)N(C)CC(=O)N[C@@H](CCc3ccc(C(F)(F)F)c(F)c3)C(=O)N2C1 [Compound 1231] ([NMeL]I[NMeA][Aze][NMeCha][Sar][hPhe(3-F,4-CF3)][Hyp](Et)[Ac5c][NMeGly(cPent)][NMeD]-NMe2; lactam N-11)",≤ 20 nM,0.59 nM
"CC[C@H](C)[C@@H]1NC(=O)[C@H](CC(C)C)N(C)C(=O)C[C@@H](C(=O)N2CCCC2)N(C)C(=O)[C@H](C2CCCC2)N(C)C(=O)C2(CCCC2)NC(=O)[C@@H]2CCCN2C(=O)[C@H](CCc2ccc(C(F)(F)F)c(F)c2)NC(=O)CN(C)C(=O)[C@H](CC2CCCCC2)N(C)C(=O)[C@@H]2CCN2C(=O)[C@H](C)N(C)C1=O [Compound 1091] ([NMeL]I[NMeA][Aze][NMeCha][Sar][hPhe(3-F,4-CF3)]P[Ac5c][NMeGly(cPent)][NMeD]-Pyrrolidide; lactam N-11)",≤ 20 nM,1 nM
CCCOC[C@H]1C(=O)N(C)CC(=O)N[C@@H](CCc2ccc(C(F)(F)F)c(Cl)c2)C(=O)N2CCC[C@H]2C(=O)NC2(CCCC2)C(=O)N(C)[C@@H](C2CCCC2)C(=O)N(C)[C@H](C(=O)N2CCCCC2)CC(=O)N(C)[C@@H](CC(C)C)C(=O)N[C@@H]([C@@H](C)CC)C(=O)N(C)[C@@H](C)C(=O)N2CC[C@H]2C(=O)N1C [Compound 415] ([NMeL]I[NMeA][Aze][NMeS](Propyl)[Sar][hPhe(3-Cl-4-CF3)]P[Ac5c][NMeGly(cPent)][NMeD]-Piperidide; lactam N-11),≤ 20 nM,1.5 nM
CC[C@H](C)[C@@H]1NC(=O)[C@H](C)N(C)C(=O)C[C@@H](C(=O)N2CCCCC2)N(C)C(=O)[C@H](C(C)C)N(C)C(=O)C2(CCCC2)NC(=O)[C@H](Cc2ccccc2F)N(C)C(=O)[C@H](CCc2ccc(C(F)(F)F)c(Cl)c2)NC(=O)CN(C)C(=O)[C@H](CC2CCCCC2)N(C)C(=O)CN(C)C(=O)CN(C)C1=O [Compound 492] ([NMeA]I[Sar][Sar][NMeCha][Sar][hPhe(3-Cl-4-CF3)][NMePhe(2-F)][Ac5c][NMeV][NMeD]-Piperidide; lactam N-11),> 500 nM,12 nM
CC[C@H](C)[C@@H]1NC(=O)[C@H](CC(C)C)N(C)C(=O)C[C@@H](C(=O)N2CCCCC2)N(C)C(=O)[C@H](C2CCCC2)N(C)C(=O)C2(CCCC2)NC(=O)[C@@H]2CCCN2C(=O)[C@H](CCc2ccc(C(F)(F)F)c(Cl)c2)NC(=O)CN(C)C(=O)[C@H](Cc2ccc(C)cc2)N(C)C(=O)[C@@H]2CCN2C(=O)[C@H](C)N(C)C1=O [Compound 1772] ([NMeL]I[NMeA][Aze][NMePhe(4-Me)][Sar][hPhe(3-Cl-4-CF3)]P[Ac5c][NMeGly(cPent)][NMeD]-Piperidide; lactam N-11),≤ 20 nM,0.75 nM

# Source: patent US20240148821A1, “PHARMACEUTICAL USE OF CYCLIC PEPTIDE COMPOUND” (CHUGAI SEIYAKU KABUSHIKI KAISHA, priority 2021, published 2024)
